From the supplement of paper PMC10307832

Assays:
Assay in all cases: relative viability (nuclei count vs DMSO), 5 days (fraction); higher = more cells survive
NCI-H1355 = system: NCI-H1355
Summary of the method: (§1)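 The day after seeding in 1536-well plates, lung cancer cell lines were treated by pin tool with a single drug, or with a fixed anchor-drug dose together with five library-drug doses (not always all listed) in √10 steps. After 5 days, a combined fix-and-stain solution (final 0.05% Triton X-100, 1% formaldehyde, 1 ug/ml Hoechst) was added. Nuclei counted on 4× images gave relative viability as treated counts over vehicle counts, reported as the median of duplicate plates.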

NCI-H1437 = system: NCI-H1437
Summary of the method: as §1

NCI-H441 = system: NCI-H441
Summary of the method: as §1

LOU-NH91 = system: LOU-NH91
Summary of the method: as §1

CAL-12T = system: CAL-12T
Summary of the method: as §1

NCI-H2023 = system: NCI-H2023
Summary of the method: as §1

NCI-H460 = system: NCI-H460
Summary of the method: as §1

HCC-44 = system: HCC-44
Summary of the method: as §1

NCI-H358 = system: NCI-H358
Summary of the method: as §1

NCI-H1650 = system: NCI-H1650
Summary of the method: as §1

NCI-H1651 = system: NCI-H1651
Summary of the method: as §1

NCI-H1975 = system: NCI-H1975
Summary of the method: as §1

NCI-H838 = system: NCI-H838
Summary of the method: as §1

NCI-H2342 = system: NCI-H2342
Summary of the method: as §1

NCI-H1395 = system: NCI-H1395
Summary of the method: as §1

LCLC-103H = system: LCLC-103H
Summary of the method: as §1

NCI-H2085 = system: NCI-H2085
Summary of the method: as §1

NCI-H1755 = system: NCI-H1755
Summary of the method: as §1

HCC-15 = system: HCC-15
Summary of the method: as §1

HCC-366 = system: HCC-366
Summary of the method: as §1

EKVX = system: EKVX
Summary of the method: as §1

NCI-H1734 = system: NCI-H1734
Summary of the method: as §1

BEN = system: BEN
Summary of the method: as §1

## COc1cc(N2CCC(C(N)=O)CC2)ccc1Nc1nc(N)c(Cl)c(Nc2ccccc2S(=O)(=O)C(C)C)n1 [HG-5-88-01] + CC(=O)Nc1cccc(-n2c(=O)n(C3CC3)c(=O)c3c(Nc4ccc(I)cc4F)n(C)c(=O)c(C)c32)c1 [Trametinib] (partner 0.02 µM)
NCI-H1355; first compound 0.04 µM
  relative viability: 0.439
NCI-H1355; first compound 0.1265 µM
  relative viability: 0.351
NCI-H1355; first compound 0.4 µM
  relative viability: 0.407
NCI-H1355; first compound 1.265 µM
  relative viability: 0.298
NCI-H1355; first compound 4 µM
  relative viability: 0.323
NCI-H1437; first compound 0.04 µM
  relative viability: 0.581
NCI-H1437; first compound 0.1265 µM
  relative viability: 0.56
NCI-H1437; first compound 0.4 µM
  relative viability: 0.447
NCI-H1437; first compound 1.265 µM
  relative viability: 0.475
NCI-H1437; first compound 4 µM
  relative viability: 0.333
NCI-H441; first compound 0.04 µM
  relative viability: 0.543
NCI-H441; first compound 0.1265 µM
  relative viability: 0.428
NCI-H441; first compound 0.4 µM
  relative viability: 0.455
NCI-H441; first compound 1.265 µM
  relative viability: 0.345
NCI-H441; first compound 4 µM
  relative viability: 0.336
LOU-NH91; first compound 0.04 µM
  relative viability: 0.74
LOU-NH91; first compound 0.1265 µM
  relative viability: 0.787
LOU-NH91; first compound 0.4 µM
  relative viability: 0.602
LOU-NH91; first compound 1.265 µM
  relative viability: 0.567
LOU-NH91; first compound 4 µM
  relative viability: 0.579
CAL-12T; first compound 0.04 µM
  relative viability: 0.377
CAL-12T; first compound 0.1265 µM
  relative viability: 0.378
CAL-12T; first compound 0.4 µM
  relative viability: 0.3
CAL-12T; first compound 1.265 µM
  relative viability: 0.227
CAL-12T; first compound 4 µM
  relative viability: 0.201
NCI-H2023; first compound 0.04 µM
  relative viability: 0.563
NCI-H2023; first compound 0.1265 µM
  relative viability: 0.535
NCI-H2023; first compound 0.4 µM
  relative viability: 0.475
NCI-H2023; first compound 1.265 µM
  relative viability: 0.364
NCI-H2023; first compound 4 µM
  relative viability: 0.2
NCI-H460; first compound 0.04 µM
  relative viability: 0.131
NCI-H460; first compound 0.1265 µM
  relative viability: 0.124
NCI-H460; first compound 0.4 µM
  relative viability: 0.13
NCI-H460; first compound 1.265 µM
  relative viability: 0.0779
NCI-H460; first compound 4 µM
  relative viability: 0.123
HCC-44; first compound 0.04 µM
  relative viability: 1.04
HCC-44; first compound 0.1265 µM
  relative viability: 1.03
HCC-44; first compound 0.4 µM
  relative viability: 1.1
HCC-44; first compound 1.265 µM
  relative viability: 1.07
HCC-44; first compound 4 µM
  relative viability: 1.01
NCI-H358; first compound 0.04 µM
  relative viability: 0.123
NCI-H358; first compound 0.1265 µM
  relative viability: 0.124
NCI-H358; first compound 0.4 µM
  relative viability: 0.131
NCI-H358; first compound 1.265 µM
  relative viability: 0.106
NCI-H358; first compound 4 µM
  relative viability: 0.105
NCI-H1650; first compound 0.04 µM
  relative viability: 0.586
NCI-H1650; first compound 0.1265 µM
  relative viability: 0.633
NCI-H1650; first compound 0.4 µM
  relative viability: 0.559
NCI-H1650; first compound 1.265 µM
  relative viability: 0.386
NCI-H1650; first compound 4 µM
  relative viability: 0.532
NCI-H1651; first compound 0.04 µM
  relative viability: 0.918
NCI-H1651; first compound 0.1265 µM
  relative viability: 0.862
NCI-H1651; first compound 0.4 µM
  relative viability: 0.799
NCI-H1651; first compound 1.265 µM
  relative viability: 0.744
NCI-H1651; first compound 4 µM
  relative viability: 0.957
NCI-H1975; first compound 0.04 µM
  relative viability: 0.4
NCI-H1975; first compound 0.1265 µM
  relative viability: 0.446
NCI-H1975; first compound 0.4 µM
  relative viability: 0.331
NCI-H1975; first compound 1.265 µM
  relative viability: 0.329
NCI-H1975; first compound 4 µM
  relative viability: 0.247
NCI-H838; first compound 0.04 µM
  relative viability: 0.518
NCI-H838; first compound 0.1265 µM
  relative viability: 0.439
NCI-H838; first compound 0.4 µM
  relative viability: 0.435
NCI-H838; first compound 1.265 µM
  relative viability: 0.409
NCI-H838; first compound 4 µM
  relative viability: 0.354
NCI-H2342; first compound 0.04 µM
  relative viability: 0.846
NCI-H2342; first compound 0.1265 µM
  relative viability: 0.939
NCI-H2342; first compound 0.4 µM
  relative viability: 0.865
NCI-H2342; first compound 4 µM
  relative viability: 0.969
NCI-H1395; first compound 0.04 µM
  relative viability: 1
NCI-H1395; first compound 0.1265 µM
  relative viability: 1.21
NCI-H1395; first compound 0.4 µM
  relative viability: 1.08
NCI-H1395; first compound 1.265 µM
  relative viability: 0.773
NCI-H1395; first compound 4 µM
  relative viability: 1.13
LCLC-103H; first compound 0.04 µM
  relative viability: 0.693
LCLC-103H; first compound 0.1265 µM
  relative viability: 0.649
LCLC-103H; first compound 0.4 µM
  relative viability: 0.52
LCLC-103H; first compound 1.265 µM
  relative viability: 0.69
LCLC-103H; first compound 4 µM
  relative viability: 0.732
NCI-H2085; first compound 0.04 µM
  relative viability: 0.613
NCI-H2085; first compound 0.1265 µM
  relative viability: 0.553
NCI-H2085; first compound 0.4 µM
  relative viability: 0.502
NCI-H2085; first compound 1.265 µM
  relative viability: 0.478
NCI-H2085; first compound 4 µM
  relative viability: 0.432
NCI-H1755; first compound 0.04 µM
  relative viability: 0.765
NCI-H1755; first compound 0.1265 µM
  relative viability: 0.72
NCI-H1755; first compound 0.4 µM
  relative viability: 0.773
NCI-H1755; first compound 1.265 µM
  relative viability: 0.78
NCI-H1755; first compound 4 µM
  relative viability: 0.792
HCC-15; first compound 0.04 µM
  relative viability: 0.372
HCC-15; first compound 0.1265 µM
  relative viability: 0.359
HCC-15; first compound 0.4 µM
  relative viability: 0.36
HCC-15; first compound 1.265 µM
  relative viability: 0.314
HCC-15; first compound 4 µM
  relative viability: 0.251
HCC-366; first compound 0.04 µM
  relative viability: 0.429
HCC-366; first compound 0.1265 µM
  relative viability: 0.366
HCC-366; first compound 0.4 µM
  relative viability: 0.365
HCC-366; first compound 1.265 µM
  relative viability: 0.361
HCC-366; first compound 4 µM
  relative viability: 0.243
EKVX; first compound 0.04 µM
  relative viability: 0.367
EKVX; first compound 0.1265 µM
  relative viability: 0.36
EKVX; first compound 0.4 µM
  relative viability: 0.278
EKVX; first compound 4 µM
  relative viability: 0.266
NCI-H1734; first compound 0.04 µM
  relative viability: 0.669
NCI-H1734; first compound 0.1265 µM
  relative viability: 0.755
NCI-H1734; first compound 0.4 µM
  relative viability: 0.643
NCI-H1734; first compound 1.265 µM
  relative viability: 0.623
NCI-H1734; first compound 4 µM
  relative viability: 0.621
BEN; first compound 0.04 µM
  relative viability: 1.04
BEN; first compound 0.1265 µM
  relative viability: 1.12
BEN; first compound 0.4 µM
  relative viability: 1.16
BEN; first compound 1.265 µM
  relative viability: 0.76
BEN; first compound 4 µM
  relative viability: 1.06
